The source of these data is patent publication US8507472B2 (priority 2010, dated 2013).

One data set deals with Pyrenophora teres. The data set can be described thus: Pyrenophora teres test (barley)/protective. Format: in vivo. The protocol: (§1) Solvent: 49 parts by weight of N,N-dimethylformamide
(§2) Emulsifier: 1 part by weight of alkylaryl polyglycol ether
(§3) To produce a suitable preparation of active compounds, 1 part by weight of active compound is mixed with the stated amounts of solvent and emulsifier, and the concentrate is diluted with water to the desired concentration.
To test for protective activity, young barley plants are sprayed with the active compound preparation at the stated application rate. 1 day after the treatment, the plants are inoculated with an aqueous spore suspension of Pyrenophora teres and then remain at 100% rel. atmospheric humidity and 22° C. for 48 h. The plants are then placed in a greenhouse at 80% rel. atmospheric humidity and a temperature of 20° C.
(§4) Evaluation is carried out 7-9 days after the inoculation. 0% means an efficacy which corresponds to that of the control, whereas an efficacy of 100% means that no infection is observed.

The next data set relates to Alternaria solani. The data set can be described thus: Alternaria test (tomato)/protective. As to conditions: in vivo. The data set is classed as in vivo. The procedure:
as §1, §2
To produce a suitable preparation of active compound, 1 part by weight of active compound is mixed with the stated amounts of solvent and emulsifier, and the concentrate is diluted with water to the desired concentration.
To test for protective activity, young tomato plants are sprayed with the active compound preparation at the stated application rate. 1 day after the treatment, the plants are inoculated with a spore suspension of Alternaria solani and then remain at 100% rel. humidity and 22° C. for 24 h. The plants then remain at 96% rel. atmospheric humidity and a temperature of 20° C.
(§5) Evaluation is carried out 7 days after the inoculation. 0% means an efficacy which corresponds to that of the control, whereas an efficacy of 100% means that no infection is observed.

In the next data set the test system is Sphaerotheca fuliginea. The data set is described as follows: Sphaerotheca test (cucumber)/protective. Format: in vivo. As to conditions: in vivo. The procedure:
as §1, §2, §3
To test for protective activity, young cucumber plants are sprayed with the active compound preparation at the stated application rate. 1 day after the treatment, the plants are inoculated with a spore suspension of Sphaerotheca fuliginea. The plants are then placed in a greenhouse at 70% rel. atmospheric humidity and a temperature of 23° C.
as §5

The next data set concerns Phytophthora infestans. Format: in vivo. Particulars: in vivo.
In the next data set the test system is Fusarium graminearum. The data set can be described thus: microbe, parasite or virus in culture. Format: cell-based.
The test system of another data set is DON/AcDON production. The data set is described as follows: microbe, parasite or virus in culture. The data set is classed as cell-based, Fusarium graminearum. Particulars: 7 days at 28° C.
The next data set relates to Leptosphaeria nodorum. The data set is described as follows: Leptosphaeria nodorum test (wheat)/protective. The data set is classed as in vivo. Particulars: in vivo. The procedure:
as §1, §2, §3
To test for protective activity, young wheat plants are sprayed with the active compound preparation at the stated application rate. 1 day after the treatment, the plants are inoculated with an aqueous spore suspension of Leptosphaeria nodorum and then remain at 100% rel. atmospheric humidity and 22° C. for 48 h. The plants are then placed in a greenhouse at 90% rel. atmospheric humidity and a temperature of 22° C.
as §4

A short description of data set [1]: log P determination by HPLC retention times (alkan-2-one calibration).

In the case of `CC(C)C(=O)Nc1cc(-c2c(-c3cccs3)nn3c2CCCC3)ccn1` [Example 88], the efficacy in % in the data set on Pyrenophora teres (in vivo) is 90%; in the data set on Alternaria solani it was 90%; in the data set with Sphaerotheca fuliginea, 95%; in the data set on Phytophthora infestans, 80%.

For the compound `Fc1cccc(-c2nn3c(c2-c2ccncc2)CCC3)c1` [Example 44], the “% inhibition of the fungal growth of Fusarium graminearum at 50 μM” value (“% inhibition of the fungal growth … at 50 μM” below) in the data set with Fusarium graminearum came out at 61%. In addition, the “% inhibition of DON/AcDON at 50 μM” value in the data set with DON/AcDON production stood at 100%. Besides, the efficacy in % was found to be 90% in the data set on Pyrenophora teres (in vivo), 80% in the data set on Alternaria solani and 70% in the data set with Phytophthora infestans.

`CC(C)C(=O)Nc1cc(-c2c(-c3ccc(F)cc3)nn3c2COCC3)ccn1` [Example 92]: the efficacy in % in the data set on Leptosphaeria nodorum was 90%; in the data set with Pyrenophora teres (in vivo), 95%; with Alternaria solani, 90%; in the data set with Sphaerotheca fuliginea, 98%; in the data set with Phytophthora infestans it was 80%.

Consider `Nc1cc(-c2c(-c3ccccc3)nn3c2CCCC3)ccn1` [Example 14], for which the “% inhibition of the fungal growth … at 50 μM” value in the data set on Fusarium graminearum worked out at 24%. Moreover, in the data set on DON/AcDON production, the “% inhibition of DON/AcDON at 50 μM” value is on record as 93%. This compound gave an efficacy in % with Phytophthora infestans of 70%.

As for `CC(C)(C)OC(=O)Nc1cc(-c2c(-c3ccc(F)cc3)nn3c2CCCC3)ccn1` [Example 16], in the data set on Fusarium graminearum, the “% inhibition of the fungal growth … at 50 μM” value turned out to be 0%. For the same compound, in the data set on DON/AcDON production, the “% inhibition of DON/AcDON at 50 μM” value turned out to be 93%.

`Fc1ccc(-c2nn3c(c2-c2ccnc(F)c2)CCC3)cc1` [Example 45]: in the data set on Fusarium graminearum, the “% inhibition of the fungal growth … at 50 μM” value came to 21%. The “% inhibition of DON/AcDON at 50 μM” value in the data set with DON/AcDON production is recorded as 100%. For the same compound, the efficacy in % with Pyrenophora teres (in vivo) amounted to 95%; in the data set on Alternaria solani, 95%; in the data set on Phytophthora infestans, 90%.

Consider `CC(=O)Nc1cc(-c2c(-c3ccc(F)cc3)nn3c2CCOC3(C)C)ccn1` [Example 90], for which the efficacy in % with Leptosphaeria nodorum was 89%; in the data set on Pyrenophora teres (in vivo), 95%; in the data set with Alternaria solani, 95%; in the data set on Sphaerotheca fuliginea, 95%; with Phytophthora infestans, 78%.

Take `O=C(CC1CC1)Nc1cc(-c2c(-c3ccc(F)cc3)nn3c2COCC3)ccn1` [Example 113]: the efficacy in % in the data set on Leptosphaeria nodorum is listed as 78%; with Pyrenophora teres (in vivo) it was 94%; in the data set with Alternaria solani it was 90%; with Sphaerotheca fuliginea, 98%; in the data set on Phytophthora infestans, 70%.

Turning to `c1cc(-c2c(-c3ccsc3)nn3c2CCC3)ccn1` [Example 46], in the data set on Fusarium graminearum, the “% inhibition of the fungal growth … at 50 μM” value came to 52%. The “% inhibition of DON/AcDON at 50 μM” value in the data set with DON/AcDON production is on record as 100%. The efficacy in % in the data set with Pyrenophora teres (in vivo), in the data set with Alternaria solani and in the data set with Phytophthora infestans was 70% throughout.

Take `COCC(=O)Nc1cc(-c2c(-c3ccsc3)nn3c2CCCC3)ccn1` [Example 60]: the “% inhibition of the fungal growth … at 50 μM” value in the data set with Fusarium graminearum came out at 100%. In addition, the results for the efficacy in % in the data set on Leptosphaeria nodorum, in the data set with Pyrenophora teres (in vivo) and in the data set on Sphaerotheca fuliginea were 78%, 90% and 90%, respectively. In the data set with DON/AcDON production, the “% inhibition of DON/AcDON at 50 μM” value was 100%.

In the case of `Fc1cc(-c2c(-c3ccccc3)nn3c2CCC3)ccn1` [Example 61, 3-(2-Fluoropyridin-4-yl)-2-phenyl-5,6-dihydro-4H-pyrrolo[1,2-b]pyrazole], the inhibition (in general, the drop in the measured response relative to a control, in per cent) at 50 µM with Fusarium graminearum (Fusarium graminearum, 72 h, read-out: % inhibition of the fungal growth of Fusarium graminearum at 50 μM) was 0%; in the data set on DON/AcDON production (Fusarium graminearum, 168 h), 100%. The efficacy in % in the data set on Pyrenophora teres (500 ppm active compound, barley, protective, evaluation 7-9 days after inoculation) amounted to 70%. The chromatographic logP (usually a lipophilicity value derived from retention on a column) in data set [1] (log P(HCOOH), HCOOH, preparation examples in the text) was 2.53; in data set [1] (log P, values marked [b] in Table 1), 2.53.

On to `CCC(=O)Nc1cc(-c2c(-c3ccc(F)cc3)nn3c2CCCCC3)ccn1` [Example 96], for which the efficacy in % with Leptosphaeria nodorum was found to be 90%; in the data set on Pyrenophora teres (in vivo), 100%; in the data set on Alternaria solani, 90%; in the data set with Sphaerotheca fuliginea it was 95%; in the data set with Phytophthora infestans, 70%.

As to `FC(F)(F)c1cccc(-c2nn3c(c2-c2ccncc2)CCC3)c1` [Example 42], the “% inhibition of the fungal growth … at 50 μM” value in the data set on Fusarium graminearum was 100%. In addition, the “% inhibition of DON/AcDON at 50 μM” value in the data set on DON/AcDON production stood at 98%.

With `C[C@@H](O)C(=O)Nc1cc(-c2c(-c3ccsc3)nn3c2CCCC3)ccn1` [Example 66], the “% inhibition of the fungal growth … at 50 μM” value in the data set with Fusarium graminearum worked out at 50%. In addition, in the data set with DON/AcDON production, the “% inhibition of DON/AcDON at 50 μM” value was 98%. The values for the efficacy in % in the data set on Pyrenophora teres (in vivo), in the data set with Alternaria solani and in the data set with Phytophthora infestans were 95%, 70% and 80%, respectively.

Take `CCC(=O)Nc1cc(-c2c(-c3cccs3)nn3c2CCCC3)ccn1` [Example 75]: the efficacy in % is given as 100% in the data set on Pyrenophora teres (in vivo), 95% in the data set with Alternaria solani, 95% in the data set with Sphaerotheca fuliginea and 80% with Phytophthora infestans.

With `Fc1cc(-c2c(-c3ccc(Cl)cc3)nn3c2CCC3)ccn1` [Example 13], the “% inhibition of the fungal growth … at 50 μM” value in the data set on Fusarium graminearum worked out at 17%. Further, the “% inhibition of DON/AcDON at 50 μM” value with DON/AcDON production is recorded as 96%. The efficacy in % in the data set with Pyrenophora teres (in vivo) is recorded as 80%.

As for `Fc1cccc(-c2nn3c(c2-c2ccnc(F)c2)CCC3)c1` [Example 54], the “% inhibition of the fungal growth … at 50 μM” value in the data set with Fusarium graminearum is reported as 0%. For the same compound, the “% inhibition of DON/AcDON at 50 μM” value in the data set with DON/AcDON production stood at 100%. Further, in the data set on Alternaria solani, the efficacy in % amounted to 80%.

In the case of `O=C(Nc1cc(-c2c(-c3ccc(F)cc3)nn3c2COCC3)ccn1)C1CC1` [Example 93], the efficacy in % in the data set on Leptosphaeria nodorum is reported as 80%; in the data set on Pyrenophora teres (in vivo), 100%; in the data set on Alternaria solani, 95%; in the data set on Sphaerotheca fuliginea, 98%; with Phytophthora infestans, 90%.

As for `CC(C)Nc1cc(-c2c(-c3cccc(F)c3)nn3c2CCC3)ccn1` [Example 56], the “% inhibition of the fungal growth … at 50 μM” value in the data set with Fusarium graminearum is 27%. The “% inhibition of DON/AcDON at 50 μM” value in the data set with DON/AcDON production is given as 92%. Further, in the data set with Phytophthora infestans, the efficacy in % stood at 80%.

For the compound `COC(=O)Nc1cc(-c2c(-c3ccsc3)nn3c2CCCC3)ccn1` [Example 67], the “% inhibition of the fungal growth … at 50 μM” value in the data set with Fusarium graminearum was found to be 60%. The “% inhibition of DON/AcDON at 50 μM” value in the data set on DON/AcDON production was determined as 100%. Moreover, the efficacy in % with Pyrenophora teres (in vivo) is on record as 95%; in the data set with Alternaria solani, 80%; with Phytophthora infestans, 70%.

Turning to `COCC(=O)Nc1cc(-c2c(-c3ccc(F)cc3)nn3c2CCOC3(C)C)ccn1` [Example 82], the efficacy in % in the data set on Leptosphaeria nodorum is reported as 88%; in the data set on Pyrenophora teres (in vivo), 94%; in the data set on Alternaria solani it was 89%; in the data set with Sphaerotheca fuliginea it was 95%; in the data set with Phytophthora infestans it was 70%.

For the compound `CC(C)C(=O)Nc1cc(-c2c(-c3ccc(F)cc3)nn3c2CCOC3(C)C)ccn1` [Example 83], the efficacy in % in the data set on Leptosphaeria nodorum amounted to 75%; in the data set on Pyrenophora teres (in vivo), 94%; with Alternaria solani, 89%; with Sphaerotheca fuliginea, 98%; in the data set on Phytophthora infestans it was 70%.

For `Cc1cc(-c2c(-c3ccc(F)cc3)nn3c2CCCC3)ccn1` [Example 6], in the data set with Fusarium graminearum, the “% inhibition of the fungal growth … at 50 μM” value is recorded as 70%. Further, the results for the efficacy in % in the data set with Leptosphaeria nodorum, in the data set on Pyrenophora teres (in vivo) and in the data set on Alternaria solani were 70%, 70% and 95%, respectively. In the data set with DON/AcDON production, the “% inhibition of DON/AcDON at 50 μM” value was 99%. Also, the “log P” value is 1.22^[a]; in data set [1] (values marked [a] in Table 1) and 2.67^[b] in data set [1] (values marked [b] in Table 1).

Regarding `Cc1ccc(-c2nn3c(c2-c2ccncc2)CCC3)cc1` [Example 41], the “% inhibition of the fungal growth … at 50 μM” value in the data set with Fusarium graminearum was 100%. Further, the “% inhibition of DON/AcDON at 50 μM” value with DON/AcDON production is 98%. Also, the efficacy in % with Pyrenophora teres (in vivo) was 95%; with Alternaria solani, 70%; in the data set on Phytophthora infestans, 70%.
